# Source: patent US9815796B2 (Merck Sharp & Dohme Corp., priority 2013, dated 2017)
# Target: human PDE2A1 (Homo sapiens (Human), UniProt O00408)
# Assay: IMAP FP PDE selectivity panel, human PDE2A1
# Type: biochemical
# Conditions: Human PDE2, Lab B; read-out: Human PDE2 Ki (nM) - Lab B
# Method: Selectivity for PDE2, as compared to other PDE families, was assessed using the IMAP® technology. Human PDE 10A2 enzyme was prepared from cytosolic fractions of transiently transfected HEK cells. All other PDE's were GST Tag human enzyme expressed in insect cells and were obtained from BPS Bioscience (San Diego, Calif.): PDE1A (Cat#60010), human PDE2A1 (Cat#60020), PDE3A (Cat#60030), PDE4A1A (Cat#60040), PDE5A1 (Cat#60050), PDE6C (Cat#60060), PDE7A (Cat#60070), PDE8A1 (Cat#60080), PDE9A2 (Cat#60090), PDE11A4 (Cat#60110).
# Assays for PDE 1 through 11 were performed in parallel at room temperature in 384-well microtiter plates with an incubation volume of 20.2 μL. Solutions of test compounds were prepared in DMSO and serially diluted with DMSO to yield 30 μL of each of ten solutions differing by 3-fold in concentration, at 32 serial dilutions per plate. […] A Labcyte POD 810 (Labcyte, Sunnyvale, Calif.) was used to dispense 200 nL from each well of the titration plate to make eleven copies of the assay plate for each titration, one copy for each PDE enzyme. A solution of each enzyme (dilution from aliquots, sufficient to produce 20% substrate conversion) and a separate solution of FAM-labeled cAMP or FAM-labeled cGMP from Molecular Devices (Sunnyvale, Calif., product # R7506 or cGMP#R7508), at a final concentration of 50 nM were made in the assay buffer (10 mM Tris HCl, pH 7.2, 10 mM MgCl2, 0.05% NaN3 0.01% Tween-20, and 1 mM DTT). Note that the substrate for PDE2 is 50 nM FAM cAMP containing 1000 nM of cGMP. The enzyme and the substrate were then added to the assay plates in two consecutive additions of 10 μL and then shaken to mix. The reaction was allowed to proceed at room temperature for 60 minutes. A binding solution was then made from the kit components, comprised of 80% Solution A, 20% Solution B and binding reagent at a volume of 1/600 the total binding solution. The enzymatic reaction was stopped by addition of 60 μL of the binding solution to each well of the assay plate. The plates were sealed and shaken for 10 seconds. The plates were incubated at room temperature for one hour, then the parallel and perpendicular fluorescence was measured using a Tecan Genios Pro plate reader (Tecan, Switzerland). The apparent inhibition constants for the compounds against all 11 PDE's was determined from the parallel and perpendicular fluorescent readings as described for PDE10 FP assay using the following apparent KM values for each enzyme and substrate combination: PDE1A (FAM cGMP) 70 nM, human PDE2A1 (FAM cAMP) 10,000 nM, PDE3A (FAM cAMP) 50 nM, PDE4A1A (FAM cAMP) 1500 nM, PDE5A1 (FAM cGMP) 400 nM, PDE6C (FAM cGMP) 700 nM, PDE7A (FAM cAMP) 150 nM, PDE8A1 (FAM cAMP) 50 nM, PDE9A2 (FAM cGMP) 60 nM, PDE10A2 (FAM cAMP) 150 nM, PDE11A4 (FAM cAMP) 1000 nM. The intrinsic PDE2 inhibitory activity of a compound which may be used in accordance with the present invention may be determined by these assays.
# Sequence of human PDE2A1 (O00408 other isoform, or with tags, fused parts or gaps): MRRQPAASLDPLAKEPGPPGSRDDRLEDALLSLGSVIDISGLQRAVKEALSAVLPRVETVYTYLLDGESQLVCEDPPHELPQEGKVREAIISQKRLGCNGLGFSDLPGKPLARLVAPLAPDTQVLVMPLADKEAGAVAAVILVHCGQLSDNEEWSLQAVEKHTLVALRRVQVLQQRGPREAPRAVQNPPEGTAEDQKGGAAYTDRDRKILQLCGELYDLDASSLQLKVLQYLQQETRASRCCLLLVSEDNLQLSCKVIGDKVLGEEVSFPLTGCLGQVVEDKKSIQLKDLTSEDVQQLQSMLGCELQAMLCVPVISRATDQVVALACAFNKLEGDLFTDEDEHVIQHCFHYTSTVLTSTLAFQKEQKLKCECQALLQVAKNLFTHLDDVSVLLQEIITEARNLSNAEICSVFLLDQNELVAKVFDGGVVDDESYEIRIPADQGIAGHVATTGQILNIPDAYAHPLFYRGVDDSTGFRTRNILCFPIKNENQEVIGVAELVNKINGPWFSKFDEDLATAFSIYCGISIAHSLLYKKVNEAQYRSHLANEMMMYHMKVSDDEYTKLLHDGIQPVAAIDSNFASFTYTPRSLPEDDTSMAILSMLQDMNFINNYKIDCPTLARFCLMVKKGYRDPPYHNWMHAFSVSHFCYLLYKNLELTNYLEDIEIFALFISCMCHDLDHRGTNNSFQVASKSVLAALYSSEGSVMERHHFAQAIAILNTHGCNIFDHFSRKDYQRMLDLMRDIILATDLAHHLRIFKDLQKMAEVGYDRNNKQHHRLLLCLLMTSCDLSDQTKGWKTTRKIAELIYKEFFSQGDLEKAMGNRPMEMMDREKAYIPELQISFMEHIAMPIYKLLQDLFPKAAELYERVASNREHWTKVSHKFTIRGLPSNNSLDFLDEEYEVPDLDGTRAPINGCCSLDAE
row,Compound,Ki [nM]
1,"CC(C)(C)[C@@H](NC(=O)c1cc(=O)[nH]c(-c2ncccn2)n1)c1ccc(C2CC2)cc1 [Example 557, N-[(1R)-1-(4-cyclopropylphenyl)-2,2-dimethylpropyl]-6-oxo-1,6-dihydro-2,2′-bipyrimidine-4-carboxamide]",8.9
2,"Cc1nc(C(=O)N[C@@H](c2ccc(C3(C)CC3)cc2)C(C)C)cc(=O)[nH]1 [Example 532, 2-methyl-N-{(1R)-2-methyl-1-[4-(1-methylcyclopropyl)phenyl]propyl}-6-oxo-1,6-dihydropyrimidine-4-carboxamide]",16
3,"Cc1nc(C(=O)NC(C)(C)c2ccc(C(F)(F)F)c(Cl)c2)cc(=O)[nH]1 [Example 641, N-{1-[3-chloro-4-(trifluoromethyl)phenyl]-1-methylethyl}-2-methyl-6-oxo-1,6-dihydropyrimidine-4-carboxamide]",32
4,"Cc1nc(C(=O)NC(C)(C)c2ccc3c(c2)OC(F)(F)O3)cc(=O)[nH]1 [Example 604, N-[1-(2,2-difluoro-1,3-benzodioxol-5-yl)-1-methylethyl]-2-methyl-6-oxo-1,6-dihydropyrimidine-4-carboxamide]",108
5,"CC(C)c1ccc([C@H](NC(=O)c2cc(=O)[nH]c(-c3ncccn3)n2)C2(C)CC2)cc1 [Example 562, N-{(R)-(1-methylcyclopropyl)[4-(1-methylethyl)phenyl]methyl}-6-oxo-1,6-dihydro-2,2′-bipyrimidine-4-carboxamide]",4.3
6,"Cc1nc(C(=O)N[C@]2(c3ccc(C(C)C)cc3)C[C@H]2C)cc(=O)[nH]1 (single isomer, unassigned) [Example 665, 2-methyl-N-{2-methyl-1-[4-(1-methylethyl)phenyl]cyclopropyl}-6-oxo-1,6-dihydropyrimidine-4-carboxamide]",4.95
7,"C[C@@H](NC(=O)c1cc(=O)[nH]c(-c2ncccn2)n1)c1ccc2c(c1)OC(F)(F)O2 [Example 587, N-[(1R)-1-(2,2-difluoro-1,3-benzodioxol-5-yl)ethyl]-6-oxo-1,6-dihydro-2,2′-bipyrimidine-4-carboxamide]",71
8,"CC(C)[C@@H](NC(=O)c1cc(=O)[nH]c(-c2ncccn2)n1)c1ccc2c(c1)OC(F)(F)O2 [Example 592, N-[(1R)-1-(2,2-difluoro-1,3-benzodioxol-5-yl)-2-methylpropyl]-6-oxo-1,6-dihydro-2,2′-bipyrimidine-4-carboxamide]",15
9,"CC(C)(C)[C@@H](NC(=O)c1cc(=O)[nH]c(-c2ncccn2)n1)c1ccc(OC(F)(F)F)c(F)c1 [Example 554, N-{(1R)-1-[3-fluoro-4-(trifluoromethoxy)phenyl]-2,2-dimethylpropyl}-6-oxo-1,6-dihydro-2,2′-bipyrimidine-4-carboxamide]",8.2
10,"CC(NC(=O)c1cc(=O)[nH]c(-c2ccccc2)n1)c1ccc(C(C)(C)C(F)(F)F)cc1 (single isomer, unassigned) [Example 698, (S)- or (R)-6-oxo-2-phenyl-N-(1-(4-(1,1,1-trifluoro-2-methylpropan-2-yl)phenyl)ethyl)-1,6-dihydropyrimidine-4-carboxamide]",> 2960
11,"O=C(N[C@@H](c1ccc(C2CC2)cc1)C1CC1)c1cc(=O)[nH]c(-c2ccccc2)n1 [Example 544, N-[(R)-cyclopropyl(4-cyclopropylphenyl)methyl]-6-oxo-2-phenyl-1,6-dihydropyrimidine-4-carboxamide]",2.4
12,"Cc1nc(C(=O)NC(c2ccc(S(F)(F)(F)(F)F)cc2F)C(C)(C)C)cc(=O)[nH]1 (single isomer, unassigned) [Example 721, (S)- or (R)-N-(1-(2-fluoro-4-(pentafluoro-λ^6-sulfanyl)phenyl)-2,2-dimethylpropyl)-2-methyl-6-oxo-1,6-dihydropyrimidine-4-carboxamide]",~1220
13,"CC(NC(=O)c1cc(=O)[nH]c(C2CC2)n1)c1ccc(C2(C(F)(F)F)CC2)cc1 (single isomer, unassigned) [Example 689, (R)- or (S)-2-cyclopropyl-6-oxo-N-(1-(4-(1-(trifluoromethyl)cyclopropyl)phenyl)-ethyl)-1,6-dihydropyrimidine-4-carboxamide]",67
14,"Cc1nc(C(=O)N[C@H](C)c2ccc(S(F)(F)(F)(F)F)cc2F)cc(=O)[nH]1 [Example 672, N-(1-(2-fluoro-4-(pentafluorothio)phenyl)ethyl)-2-methyl-6-oxo-1,6-dihydropyrimidine-4-carboxamide]",> 2960
15,"CC1([C@@H](NC(=O)c2cc(=O)[nH]c(-c3ncccn3)n2)c2ccc(S(F)(F)(F)(F)F)cc2)CC1 [Example 564, N-{(R)-(1-methylcyclopropyl)[4-(pentafluoro-λ^6-sulfanyl)phenyl]methyl}-6-oxo-1,6-dihydro-2,2′-bipyrimidine-4-carboxamide]",6.7
16,"CC(C)(C)[C@@H](NC(=O)c1cc(=O)[nH]c(-c2ncccn2)n1)c1ccc2c(c1)OC(F)(F)O2 [Example 586, N-[(1R)-1-(2,2-difluoro-1,3-benzodioxol-5-yl)-2,2-dimethylpropyl]-6-oxo-1,6-dihydro-2,2′-bipyrimidine-4-carboxamide]",19
17,"CC(C)(C)[C@@H](NC(=O)c1cc(=O)[nH]c(-c2ncccn2)n1)c1ccc(S(F)(F)(F)(F)F)cc1 [Example 566, N-{(1R)-2,2-dimethyl-1-[4-(pentafluoro-λ^6-sulfanyl)phenyl]propyl}-6-oxo-1,6-dihydro-2,2′-bipyrimidine-4-carboxamide]",4.3
18,"O=C(N[C@@H]1CCCc2cc(C(F)(F)F)ccc21)c1cc(=O)[nH]c(-c2ccccc2)n1 [Example 552, 6-oxo-2-phenyl-N-[(1R)-6-(trifluoromethyl)-1,2,3,4-tetrahydronaphthalen-1-yl]-1,6-dihydropyrimidine-4-carboxamide]",96
19,"CC1([C@@H](NC(=O)c2cc(=O)[nH]c(-c3ncccn3)n2)c2ccc(C(F)(F)F)cc2)CC1 [Example 582, N-{(R)-(1-methylcyclopropyl)[4-(trifluoromethyl)phenyl]methyl}-6-oxo-1,6-dihydro-2,2′-bipyrimidine-4-carboxamide]",10
20,"O=C(N[C@@H](c1ccc(C2CC2)c(F)c1)C1CC1)c1cc(=O)[nH]c(-c2ncccn2)n1 [Example 581, N-[(R)-cyclopropyl(4-cyclopropyl-3-fluorophenyl)methyl]-6-oxo-1,6-dihydro-2,2′-bipyrimidine-4-carboxamide]",13
21,"Cc1nc(C(=O)NC(C)c2ccc(C3(C(F)(F)F)CC3)cc2)cc(=O)[nH]1 (single isomer, unassigned) [Example 686, (S)- or (R)-2-methyl-6-oxo-N-(1-(4-(1-(trifluoromethyl)cyclopropyl)phenyl)-ethyl)-1,6-dihydropyrimidine-4-carboxamide]",> 2960
22,"CC1(c2ccc(C(NC(=O)c3cc(=O)[nH]c(C4CC4)n3)C(C)(C)C)cc2F)CC1 (single isomer, unassigned) [Example 713, (R)- or (S)-2-cyclopropyl-N-(1-(3-fluoro-4-(1-methylcyclopropyl)phenyl)-2,2-dimethylpropyl)-6-oxo-1,6-dihydropyrimidine-4-carboxamide]",1.5
23,"Cc1nc(C(=O)N[C@@H](c2ccc(OC(F)F)c(F)c2)C(C)C)cc(=O)[nH]1 [Example 624, N-{(1R)-1-[4-(difluoromethoxy)-3-fluorophenyl]-2-methylpropyl}-2-methyl-6-oxo-1,6-dihydropyrimidine-4-carboxamide]",17
